From PMC3834215, “RedOx Status, Proteasome and APEH: Insights into Anticancer Mechanisms of t10,c12-Conjugated Linoleic Acid Isomer on A375 Melanoma Cells” (PLoS ONE, 2013)
Blank lines part the entries; values can stand above or below the compound they belong to.

Experiments:
20S human proteasome = molecular target: T1, 20S human proteasome (Homo sapiens, UniProt P28074); test: Cell-free inhibition of chymotrypsin-like (CT-like) activity of 20S proteasome; type: biochemical; conditions: for IC50: 30 min pre-incubation, 37 °C, pH 7.5, N-Suc-LLVT-AMC 0.080 mM, read-out: IC50 on 20S isoform (CT-like activity)
T1 construct: purchased Boston Biochem
Description: (§1) The fluorescent substrate N-succinyl-Leu-Leu-Val-Tyr-7-amido-4-methylcoumarin (N-Suc-LLVT-AMC) was used for measurement of the CT-like activity of the proteasome, both in cell free assays and in cancer cell extracts, at a final concentration of 0.080 mM at 37 °C in Tris buffer pH 7.5, following the procedure described in Palmieri et al..
(§2) Protease inhibition activities of CLA isomers and fatty acids were carried out using a fixed amount of commercially available APEH or 20S, 20Si, 26S proteasomes (3-5 nM or 0.12 mg/mL, respectively), and increasing concentrations of fatty acid. Mixtures were pre-incubated for 30min at 37 °C in 50 mM Tris-HCl buffer pH 7.5, before addition of the specific substrate, and the enzymatic activities were followed as described above.

A375 melanoma cells = test: MTT cell viability, A375; type: cell-based, human; conditions: for reduction of cell viability: A375, 24h exposure, 50 to 200 μM
Description: (§3) The colorimetric 3-(4,5-dimethylthiazol-2)-2,5-diphenyltetrazolium bromide (MTT) (Sigma Aldrich, Milan) assay was used to quantify cell viability. Briefly, cells were incubated in 96 well microplates in the appropriate complete medium with standardized densities for 24h as pre-incubation process. The medium was removed and replaced by medium containing different doses of the different CLA-isomers for 24h. Following treatment, the medium was removed and the cells were incubated with DMEM w/o red phenol with 0.5 mg/ml MTT for additional 2 to 4h at 37 °C. After removal of the medium and MTT, cells in each plate were incubated with 0.1 M HCl/isopropanol to dissolve the MTT-formazan crystals. Absorbance at 590 nm was recorded with a plate reader (Bio Rad mod 680). The relative number of viable cells was expressed as a percentage of the control.

20Si human proteasome = molecular target: T2, 20Si human proteasome (Homo sapiens, UniProt P28062); test: Cell-free inhibition of CT-like activity of 20Si proteasome; type: biochemical; conditions: for IC50: 30 min pre-incubation, 37 °C, pH 7.5, N-Suc-LLVT-AMC 0.080 mM, read-out: IC50 on 20Si isoform (CT-like activity)
T2 construct: purchased Boston Biochem
Description: The fluorescent substrate N-succinyl-Leu-Leu-Val-Tyr-7-amido-4-methylcoumarin (N-Suc-LLVT-AMC) was used for measurement of the CT-like activity of the proteasome, both in cell free assays and in cancer cell extracts, at a final concentration of 0.080 mM at 37 °C in Tris buffer pH 7.5, following the procedure described in Palmieri et al. [25].

[1] = tested on: A375M metastatic melanoma cells; test: MTT cell viability, A375M; type: cell-based, human; conditions: 24h exposure, 50 to 200 μM
Description: as §3

[2] = tested on: MDA-MB mammary adenocarcinoma cells; test: MTT cell viability, MDA-MB; type: cell-based, human; conditions: 24h exposure, 50 to 200 μM
Description: as §3

[3] = tested on: all cancer cells (U87, MCF7, MDA-MB, HeLa, Caco2, HepG2, A375M, A375); test: MTT cell viability, eight cancer cell lines; type: cell-based, human; conditions: up to 200 μM, 24h, data not shown
Description: as §3

Porcine liver APEH = molecular target: T3, Porcine liver APEH (Sus scrofa, UniProt P19205); test: Cell-free APEH inhibition assay (acetyl-Ala-pNA); type: biochemical
T3 construct: purchased Takara; host or cells: porcine liver
T3 sequence (P19205 1-732): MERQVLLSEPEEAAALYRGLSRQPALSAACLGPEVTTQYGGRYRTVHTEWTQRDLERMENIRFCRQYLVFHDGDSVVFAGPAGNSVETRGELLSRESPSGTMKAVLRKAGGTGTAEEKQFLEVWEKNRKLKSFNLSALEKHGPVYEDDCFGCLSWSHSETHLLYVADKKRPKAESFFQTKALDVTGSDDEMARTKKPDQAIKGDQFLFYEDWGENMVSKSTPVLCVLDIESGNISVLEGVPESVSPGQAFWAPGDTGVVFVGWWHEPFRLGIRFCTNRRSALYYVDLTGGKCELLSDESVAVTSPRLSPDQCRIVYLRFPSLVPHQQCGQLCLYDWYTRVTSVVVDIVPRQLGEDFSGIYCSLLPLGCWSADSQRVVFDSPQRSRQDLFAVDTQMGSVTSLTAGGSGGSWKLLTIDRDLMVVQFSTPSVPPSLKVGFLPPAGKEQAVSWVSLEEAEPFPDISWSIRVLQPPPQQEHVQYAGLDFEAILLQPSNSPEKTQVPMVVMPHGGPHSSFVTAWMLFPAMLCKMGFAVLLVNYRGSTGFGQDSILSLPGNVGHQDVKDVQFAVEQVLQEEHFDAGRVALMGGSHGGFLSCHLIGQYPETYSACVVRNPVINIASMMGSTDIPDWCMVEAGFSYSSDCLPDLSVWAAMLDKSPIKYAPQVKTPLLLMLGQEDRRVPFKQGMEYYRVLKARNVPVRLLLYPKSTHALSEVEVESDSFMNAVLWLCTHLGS
Description: (§4) APEH activity was measured spectrophotometrically using the chromogenic substrate acetyl-Ala-pNA (Bachem) as described before. The reaction mixture containing pure APEH or an appropriate amount of cell extract was incubated at 37 °C in 50 mM Tris-HCl, pH 7.5 (Tris Buffer).
as §2

[4] = tested on: HeLa cervical carcinoma cells; test: MTT cell viability, HeLa; type: cell-based, human; conditions: 24h exposure, 50 to 200 μM
Description: as §3

human fibroblasts = type: cell-based
Description: Human hepatoma cells (HepG2) were seeded (2x10^4cells/cm^2) and maintained for 24h in MEM (Gibco Invitrogen; Milano) medium supplemented with 2 mM L-glutamine, 1% nonessential amino acids and 10% FBS. Colon carcinoma (Caco-2), cervical carcinoma (Hela), glioblastoma (U87), melanoma (A375, A375M) and mammary adenocarcinoma (MCF7, MDA-MB) were seeded (1x10^4cells/cm^2) and grown in DMEM supplemented with 10% FBS, 2 mM L-glutamine. HepG2, Hela, U87, Caco-2, MCF7, MDA-MB, A375 and A375 metastatic melanoma (A375M) cell lines were obtained by ATCC (LCG standards, Milano, Italy). Normal human dermal fibroblast (NDHF) within 8th passage were seeded at a density of 2x10^4 cells/cm^2 and cultured in fibroblast growth medium (FGM-2; Lonza, Milan, Italy) containing 2% FBS, 50 μg/mL gentamycin and amphotericin B, 10μg/mL fibroblast growth factor and insulin. BHK21 cells (kindly donated by Dr. David Y Thomas, McGill University Montreal Canada) were cultured in DMEM/F12, 5% FBS, 1 mM L-glutamine, 200 µg/mL methotrexate, and 100units/mL penicillin-streptomycin. […]
The colorimetric 3-(4,5-dimethylthiazol-2)-2,5-diphenyltetrazolium bromide (MTT) (Sigma Aldrich, Milan) assay was used to quantify cell viability. […] Absorbance at 590 nm was recorded with a plate reader (Bio Rad mod 680). The relative number of viable cells was expressed as a percentage of the control.

caspase 3 in A375 cells = test: Caspase 3 activity in A375 cells; type: cell-based, human; conditions: A375, 24h, doses 50, 100 or 200 μM, dose-dependent, maximum
Description: Pro-apoptotic and cytotoxic ability of CLA isomers were assayed by measuring caspase 3 and the activity of lactate dehydrogenase (LDH) in the spent media, respectively [25]. The caspase 3 activity, measured at 37 °C and pH 7.5, was expressed as fold increase compared to the control culture.

[5] = tested on: proteasomal CT-like activity in A375 cells; test: Proteasomal CT-like activity in A375 cytoplasmic extracts after treatment; type: cell-based, human; conditions: for proteasomal CT-like activity inhibited to: 24h
Description: as §1
(§5) Following the treatments, cells were washed three times with ice cold phosphate-buffer saline (PBS) and cytosolic extracts were prepared accordingly to a published procedure. Protein concentrations were determined in supernatants by BCA protein assay reagent kit (Pierce). Western blotting analyses were performed as previously described.

[6] = tested on: APEH activity in A375 cells; test: APEH activity in A375 cytoplasmic extracts after treatment; type: cell-based, human
Description: as §4, §5

Bcl-2 in A375 cells = test: Bcl-2 protein expression by immunoblotting in A375; type: cell-based, human; conditions: A375, 24h, 50-200 μM
Description: as §5

γGCL mRNA in A375 cells = test: γGCL mRNA by qRT-PCR in A375; type: cell-based, human; conditions: A375, 200 μM, end of time course
APEH mRNA in A375 cells = test: APEH mRNA by qRT-PCR in A375; type: cell-based, human
Description: (§6) mRNA expression levels of APEH and β-5 proteasome subunit were determined in treated or untreated cells to investigate on the functional relationship existing between APEH and proteasome activities and on their involvement in the anticancer activity of CLA.
(§7) Total RNA was isolated from the human cell lines (~10^6 cells aliquots) according to the SV Total RNA Isolation System (Promega) protocol, with an on column DNase I step. Total RNA concentrations were determined using a Qubit® Fluorometer (Invitrogen). RNAs were then reverse transcribed using the Transcriptor First Strand cDNA Synthesis Kit (Roche). 100 ng of reverse transcribed complementary DNA, and its dilution series to calculate the efficacy of primers, were amplified by quantitative real-time PCR (qRT-PCR) on an iCycleriQ™ (Bio-Rad) using 300 nM gene-specific primers, Maxima® SYBR Green/Fluorescein qPCR Master Mix (2X) (Fermentas) and the following PCR conditions: 1 cycle at 95 °C for 10min, and 40 cycles of 95 °C for 15s , 60 °C for 30s, and 72 °C for 30s.
(§8) The expression level of β-actin gene was used as an internal control for normalization (ref gene). Raw cycle threshold values (Ct values) obtained for the target genes were compared to the Ct value obtained for the ref gene. […]

[7] = tested on: β-5 proteasome subunit mRNA in A375 cells; test: β-5 proteasome subunit mRNA by qRT-PCR in A375; type: cell-based, human
Description: as §6, §7, §8

[8] = tested on: intracellular GSH in A375 cells; test: Intracellular GSH in A375; type: cell-based, human; conditions: A375, 24h, 50, 100 or 200 μM
Description: Intracellular concentration of reduced and oxidized glutathione (GSH and GSSG, respectively) were quantified using the 5,5'-dithiobis(2-nitrobenzoic acid)-GSSG reductase recycling assay. GSSG content was preliminarily evaluated in cytosolic extracts of treated or untreated cells upon the addition of 10 mM 1-methyl-2-vinylpyridinium trifluoromethanesulfonate (a specific GSH scavenger).

[9] = negative control, data not shown

- inhibition reached, 20S (20S human proteasome; plateau of dose-response curve): about 60%
- IC50 (A375 melanoma cells; Homo sapiens, A-375, read-out: IC50 (dose accountable for 50% decrease of cell viability), A375, 24h): 0.01 ± 2e-05 µM
SMILES: CC(C)C[C@H](NC(=O)[C@H](Cc1ccccc1)NC(=O)c1cnccn1)B(O)O [BTZ, bortezomib, reference compound]

- IC50 (20S human proteasome): 31.2 ± 8.8 µM
- IC50 (20Si human proteasome): 6.4 ± 1 µM
SMILES: CCCCCC/C=C/C=C\CCCCCCCC(=O)O [c9,t11-CLA, cis9,trans11 (c9,t11-CLA)]
- reduction of cell viability (A375 melanoma cells): < 40%
- reduction of cell viability [1]: < 40%
- reduction of cell viability [2]: < 40%

- inhibitory effect on 20S CT-like activity (20S human proteasome; [9]): only negligible effects
- inhibitory effect on 20Si CT-like activity (20Si human proteasome; [9]): only negligible effects
SMILES: CCCCCCCC(=O)O [octanoic acid, reference compound]
- effect on cell viability [3]: no significant results

SMILES: CCCCCC/C=C/C=C/CCCCCCCC(=O)O [t9,t11-CLA]
- reduction of cell viability (A375 melanoma cells): about 50%

- IC50 (20S human proteasome): 14.8 ± 2 µM
- IC50 (20Si human proteasome): 1.1 ± 0.2 µM
- IC50 (Porcine liver APEH; 37 °C, pH 7.5): 110 ± 11.7 µM
- maximum inhibition of APEH (Porcine liver APEH; dose-dependent): about 41%
SMILES: CCCCC/C=C\C=C\CCCCCCCCC(=O)O [t10,c12-CLA, trans10,cis12 (t10,c12-CLA)]
- reduction of cell viability (A375 melanoma cells): 63%
- reduction of cell viability [1]: 51%
- reduction of cell viability [4]: 40%
- toxic effects on fibroblast proliferation (human fibroblasts): lack of toxic effects
- caspase 3 activation compared to the control culture (caspase 3 in A375 cells): eightfold increase
- proteasomal CT-like activity plateau, % of starting value ([5]; A375, 50 μM, plateau after 8h): 70%
- proteasomal CT-like activity inhibited to ([5]; A375, 100 μM): 50%
- proteasomal CT-like activity inhibited to ([5]; A375, 200 μM): 25%
- APEH activity plateau, % of starting value ([6]; A375, 50 μM, plateau after 8h): 80%
- APEH activity plateau, % of starting level ([6]; A375, 200 μM, time course): 70%
- maximum reduction of Bcl-2 expression (Bcl-2 in A375 cells): 80%
- down-regulation of γGCL mRNA levels (γGCL mRNA in A375 cells): 1.5 fold
- APEH mRNA stable final value vs initial expression level (APEH mRNA in A375 cells; A375, 50 μM, time course): approximately one-fold lower
- APEH mRNA level (APEH mRNA in A375 cells; A375, 200 μM, 24h): strongly down-regulated
- β-5 mRNA stable final value vs initial expression level ([7]; A375, 50 μM, time course): approximately one-fold lower
- proteasome (β-5) mRNA level ([7]; A375, 200 μM, 24h): strongly down-regulated
- intracellular GSH [8]: significant decline
